According to patent US10757944B2, “Ozone treatment for elimination of pathogens” (priority 2016, dated 2020):

Columns and labels:
[1] = Cannabinoid and terpene content of cannabis flower before and after ozone exposure; type: physicochemical; conditions: for % Change (decrease): 60 minute exposure to 200 ppm of ozone vs before; for % After Ozone Exposure (60 minutes): content of cannabis flower after 60 minute exposure to 200 ppm of ozone; for % Before Ozone Exposure (0 minutes): content of cannabis flower before exposure
Procedure: Cannabinoid and terpene content of cannabis flower was measured before exposure to 200 ppm of ozone in an embodiment of a disclosed pathogen reduction device and after a 60 minute exposure. The results are disclosed in Table 7 by the different cannabinoids and terpenes measured.

[2] = Pesticide residue on hemp flower after ozone treatment (AOAC official method 2007.01); type: physicochemical; conditions: for Sample 1: residue on pesticide treated hemp exposed to ozone / Sample 2: residue on pesticide treated hemp exposed to ozone / Sample 3: residue on pesticide treated hemp exposed to ozone: 200 ppm ozone for 20 minutes; for average reduction of pesticide across the three samples tested: hemp, 20 minutes at 200 ppm ozone; for Control: residue on pesticide treated hemp not exposed to ozone: no ozone exposure
Procedure: The ability of ozone to reduce pesticide residue using an embodiment of a disclosed pathogen reduction device was evaluated. In this series of experiments, Myclobutanil and Bifenazate were purchased in liquid formulations (Myclobutanil at 19.7% from Dow AgroSciences as Eagle® 20EW and Bifenazate at 22.6% from Chemtura Corporation as Floramite® SC). The pesticides were sprayed on homogenized hemp flower and air dried. Dried hemp flower with pesticide was then exposed to treatment with 200 ppm of ozone for 20 minutes. Non pesticide treated hemp, pesticide treated hemp, and pesticide treated hemp that was exposed to ozone were analyzed by spectrometry using AOAC official method 2007.01. The results are disclosed below in Table 3 were Matrix Blank is non pesticide treated hemp (negative control), Control is pesticide treated hemp that was not exposed to ozone, and Sample 1, Sample 2, and Sample 3 are three samples of pesticide treated hemp that was exposed to ozone at 200 ppm for 20 minutes.

| SMILES | % Change (decrease) [1] | % After Ozone Exposure (60 minutes) [1] | % Before Ozone Exposure (0 minutes) [1] | Sample 1: residue on pesticide treated hemp exposed to ozone [2] | Sample 2: residue on pesticide treated hemp exposed to ozone [2] | Sample 3: residue on pesticide treated hemp exposed to ozone [2] | average reduction of pesticide across the three samples tested [2] | Control: residue on pesticide treated hemp not exposed to ozone [2] |
| --- | --- | --- | --- | --- | --- | --- | --- | --- |
| CCCCCc1cc2c(c(O)c1C(=O)O)[C@@H]1C=C(C)CC[C@H]1C(C)(C)O2 [THCA] | 7.1% | 15.7% | 16.9% |  |  |  |  |  |
| C=C(C)[C@@H]1CCC(C)=C[C@H]1c1c(O)cc(CCCCC)c(C(=O)O)c1O [CBDA] | 5.4% | 0.035% | 0.037% |  |  |  |  |  |
| CCCCCc1cc(O)c2c(c1)OC(C)(C)[C@@H]1CCC(C)=C[C@@H]21 [THC] | 9.2% | 0.680% | 0.749% |  |  |  |  |  |
| CCCCCc1cc2c(c(O)c1C(=O)O)-c1cc(C)ccc1C(C)(C)O2 [CBNA] | 0.04% | 0.0458% | 0.046% |  |  |  |  |  |
| CCCCCc1cc(O)c(C/C=C(\C)CCC=C(C)C)c(O)c1C(=O)O [CBGA] | 13.4% | 0.552% | 0.638% |  |  |  |  |  |
| CCCCC(C#N)(Cn1cncn1)c1ccc(Cl)cc1 (stereo not shown) [Myclobutanil] |  |  |  | 0.39 mg/kg | 0.28 mg/kg | 0.28 mg/kg | 0.18 ppm | 0.5 mg/kg |
| CCCCCc1cc2c(c(O)c1C(=O)O)C=CC(C)(CCC=C(C)C)O2 (stereo not shown) [CBCA] | 0.28% | 0.102% | 0.105% |  |  |  |  |  |
| CCCc1cc2c(c(O)c1C(=O)O)[C@@H]1C=C(C)CC[C@H]1C(C)(C)O2 [THCVA] | 1.2% | 0.076% | 0.077% |  |  |  |  |  |
| COc1ccc(-c2ccccc2)cc1NNC(=O)OC(C)C [Bifenazate] |  |  |  | 0.28 mg/kg | 0.21 mg/kg | 0.22 mg/kg | 0.1 ppm | 0.34 mg/kg |
